Data: US20230100838A1 (Revolution Medicines, Inc., priority 2019, published 2023)

Experiments:
[1] = molecular target: T1, GDP-loaded K-Ras (1-169) G12D, C51S, C80L, C118S (Homo sapiens, UniProt P01116, C118S/C51S/C80L/G12D); assay: K-Ras G12D(GDP) cross-linking assay (conjugate formation, TOF mass spectrometry); format: binding; design: key: 0: No observed x-linking; +: 0 < x ≤ 20; ++: 20 < x ≤ 40; +++: 40 < x ≤ 100; conditions: Table 5; percent covalently modified K-Ras by MS; room temperature; typical compound conc. 2, 10, 25 μM, endpoints 1 and 24 h
T1 construct: GDP-loaded K-Ras (1-169) G12D, C51S, C80L, C118S
Protocol: (§1) Protocol: K-Ras G12D(GDP) Cross-Linking Assay
(§2) Note: while the following protocol outlines the procedure for K-Ras G12D(GDP), a person of skill in the art may substitute other Ras proteins, and may also substitute a non-hydrolyzable GTP analog for GDP to study GTP bound Ras protein.
(§3) GDP-loaded K-Ras (1-169) G12D, C51S, C80L, C118S and GDP-loaded K-Ras (1-169) C51S, C80L, C118S were adjusted to 50 μM in K-Ras assay buffer (12.5 mM HEPES, 75 mM NaCl and 1 mM MgCl2 at pH 7.4). A 5 μL aliquot of each protein solution was added to each well of a 96-well microplate containing 40 μL of assay buffer. Initial compound stocks were prepared in DMSO at 100 times their final assay concentration. Compounds were then diluted 10-fold into K-Ras assay buffer to 10 times their final concentration. A 5 μL aliquot of each diluted compound solution was added to each protein solution in the 96-well microplate to initiate the reaction, which then proceeded at room temperature. Typical final compound concentrations were 2, 10, and 25 μM. At each time point, the reactions were analyzed immediately or quenched with 5 μL of a 5% formic acid solution and kept at 4° C. until analysis. Typical assay endpoints were 1 and 24 h.
(§4) Data collection took place on an Agilent 6230 TOF Mass Spectrometer. Complete reactions were injected onto a C4 reverse-phase column to separate protein from buffer components prior to entering the mass spectrometer. The proteins were eluted from the column by increasing acetonitrile fraction in the mobile phase and fed directly into the mass analyzer. Initial analysis of raw data took place in Agilent MassHunter BioConfirm software and consisted of deconvolution of multiple protein charge states with the maximum entropy algorithm, with a mass step of 1 Da. The heights of all deconvoluted protein masses were exported for further data analysis. The percent modification of each protein was then determined by calculating the peak height of the covalently modified K-Ras species as a percentage of the sum total of K-Ras protein peak height.

[2] = molecular target: T2, GDP-loaded K-Ras (1-169) C51S, C80L, C118S (Homo sapiens, UniProt P01116, C118S/C51S/C80L); assay: K-Ras WT (GDP) cross-linking assay (conjugate formation, TOF mass spectrometry); format: binding; design: key: 0: No observed x-linking; +: 0 < x ≤ 20; ++: 20 < x ≤ 40; +++: 40 < x ≤ 100; conditions: Table 5; percent covalently modified K-Ras by MS; room temperature; typical compound conc. 2, 10, 25 μM, endpoints 1 and 24 h
T2 construct: GDP-loaded K-Ras (1-169) C51S, C80L, C118S
Protocol: as §1, §2, §3, §4

| SMILES | G12D x-linking (%) [1] | WT x-linking (%) [2] |
| --- | --- | --- |
| O=C([C@@H]1CN1)N1CCN2c3ncnc4cc(-c5c(O)cccc5F)c(Cl)c(c34)OCC[C@@H]2C1 [Example 134] | + (0 < x ≤ 20) | + (0 < x ≤ 20) |
| Cc1cccc2cccc(N3CCc4c(nc(OC[C@@H]5CCCN5C)nc4N4CCN(C[C@H]5CN5)[C@@H](CC#N)C4)C3)c12 [Example 100, 2-((S)-1-(((R)-aziridin-2-yl)methyl)-4-(7-(8-methylnaphthalen-1-yl)-2-(((S)-1-methylpyrrolidin-2-yl)methoxy)-5,6,7,8-tetrahydropyrido[3,4-d]pyrimidin-4-yl)piperazin-2-yl)acetonitrile] | + (0 < x ≤ 20) | + (0 < x ≤ 20) |
| C#CCCN1CCC[C@H]1COc1nc2c(c(N3CCN(C(=O)[C@@H]4CN4)[C@@H](CC#N)C3)n1)CCN(c1cccc3cccc(C)c13)C2 [Example 117, 2-((S)-1-((S)-aziridine-2-carbonyl)-4-(2-(((S)-1-(but-3-yn-1-yl)pyrrolidin-2-yl)methoxy)-7-(8-methylnaphthalen-1-yl)-5,6,7,8-tetrahydropyrido[3,4-d]pyrimidin-4-yl)piperazin-2-yl)acetonitrile] | + (0 < x ≤ 20) | 0 |
| COc1ccccc1CN=C=N[C@H]1CCN(c2nc(OC[C@@H]3CCCN3C)nc3c2CCN(c2cccc4cccc(C)c24)C3)C[C@@H]1CC#N [Example 103, 2-((3S,4S)-4-((((2-methoxybenzyl)imino)methylene)amino)-1-(7-(8-methylnaphthalen-1-yl)-2-(((S)-1-methylpyrrolidin-2-yl)methoxy)-5,6,7,8-tetrahydropyrido[3,4-d]pyrimidin-4-yl)piperidin-3-yl)acetonitrile] | + (0 < x ≤ 20) | + (0 < x ≤ 20) |
| Cc1cccc2cccc(N3CCc4c(nc(OC[C@@H]5CCCN5C)nc4N4CCN(C[C@@H]5CN5)[C@@H](CC#N)C4)C3)c12 [Example 101, 2-((S)-1-(((S)-aziridin-2-yl)methyl)-4-(7-(8-methylnaphthalen-1-yl)-2-(((S)-1-methylpyrrolidin-2-yl)methoxy)-5,6,7,8-tetrahydropyrido[3,4-d]pyrimidin-4-yl)piperazin-2-yl)acetonitrile] | + (0 < x ≤ 20) | + (0 < x ≤ 20) |
| CO[C@H]1CCCC[C@H]1N=C=NC1CCN(c2nc(OC[C@@H]3CCCN3C)nc3c2CCN(c2cccc4cccc(C)c24)C3)CC1 [Example 148] | + (0 < x ≤ 20) | + (0 < x ≤ 20) |
| CN1CCC[C@H]1COc1nc2c(c(N3CCN(C(=O)[C@H]4CN4)[C@@H](CC#N)C3)n1)CCN(c1cccc3cccc(Cl)c13)C2 [Example 112, 2-((S)-1-((R)-aziridine-2-carbonyl)-4-(7-(8-chloronaphthalen-1-yl)-2-(((S)-1-methylpyrrolidin-2-yl)methoxy)-5,6,7,8-tetrahydropyrido[3,4-d]pyrimidin-4-yl)piperazin-2-yl)acetonitrile] | ++ (20 < x ≤ 40) | 0 |
| CO[C@@H]1CCC[C@@H]1N=C=NC1CCN(c2nc(OC[C@@H]3CCCN3C)nc3c2CCN(c2cccc4cccc(C)c24)C3)CC1 (single isomer, unassigned) [Example 149] | ++ (20 < x ≤ 40) | + (0 < x ≤ 20) |
| CN1CCC[C@H]1COc1nc2c(c(N3CCN(C(=O)[C@H]4CN4)[C@@H](CC#N)C3)n1)CCN(c1cc(O)cc3ccccc13)C2 [Example 114] | ++ (20 < x ≤ 40) | 0 |
| COCCN=C=N[C@H]1CCN(c2nc(OC[C@@H]3CCCN3C)nc3c2CCN(c2cccc4cccc(C)c24)C3)C[C@@H]1CC#N [Example 76, 2-((3S,4S)-4-((((2-methoxyethyl)imino)methylene)amino)-1-(7-(8-methylnaphthalen-1-yl)-2-(((S)-1-methylpyrrolidin-2-yl)methoxy)-5,6,7,8-tetrahydropyrido[3,4-d]pyrimidin-4-yl)piperidin-3-yl)acetonitrile] | +++ (40 < x ≤ 100) | ++ (20 < x ≤ 100) |
| Cc1ccnc(C(C)C)c1-n1c(=O)nc(N2[C@H](C)CN(C(=O)[C@@H]3CN3)C[C@H]2C)c2cc(F)c(-c3c(O)cccc3F)nc21 [Example 142] | + (0 < x ≤ 20) | + (0 < x ≤ 20) |
| CO[C@H]1CCCC[C@@H]1N=C=NC1CCN(c2nc(OC[C@@H]3CCCN3C)nc3c2CCN(c2cccc4cccc(C)c24)C3)CC1 [Example 145] | + (0 < x ≤ 20) | + (0 < x ≤ 20) |
| Cc1cccc2cccc(N3CCc4c(nc(OC[C@@H]5CCCN5C)nc4N4CCN(C(=O)[C@@H]5CN5Cc5ccccc5)[C@@H](CC#N)C4)C3)c12 (stereo partly drawn) [Example 97, 2-((S)-1-((S)-1-benzylaziridine-2-carbonyl)-4-(7-(8-methylnaphthalen-1-yl)-2-(((S)-1-methylpyrrolidin-2-yl)methoxy)-5,6,7,8-tetrahydropyrido[3,4-d]pyrimidin-4-yl)piperazin-2-yl)acetonitrile] | + (0 < x ≤ 20) | + (0 < x ≤ 20) |
| Cc1cccc2cccc(N3CCc4c(nc(OC[C@@H]5CCCN5C)nc4N4CC[C@@H](NC(=O)C5CN5)C4)C3)c12 (stereo partly shown) [Example 129] | + (0 < x ≤ 20) | 0 |
| Cc1cccc2cccc(N3CCc4c(nc(OC[C@@H]5CCCN5C)nc4N4CC[C@@H](NC(=O)[C@@H]5CN5)[C@@H](CC#N)C4)C3)c12 [Example 128] | + (0 < x ≤ 20) | + (0 < x ≤ 20) |
| Cc1cccc2cccc(N3CCc4c(nc(OC[C@@H]5CCCN5C)nc4N4CCN(C(=O)[C@@H]5CN5S(C)(=O)=O)[C@@H](CC#N)C4)C3)c12 (stereo partly shown) [Example 132] | + (0 < x ≤ 20) | + (0 < x ≤ 20) |
| Cc1cccc2cccc(N3CCc4c(nc(OC[C@@H]5CCCN5C)nc4N4CCN(C(=O)[C@H]5CN5S(C)(=O)=O)[C@@H](CC#N)C4)C3)c12 (stereo partly shown) [Example 131] | + (0 < x ≤ 20) | + (0 < x ≤ 20) |
| COC1CC1N=C=NC1CCN(c2nc(OC[C@@H]3CCCN3C)nc3c2CCN(c2cccc4cccc(C)c24)C3)CC1 (stereo partly shown) [Example 151] | +++ (40 < x ≤ 100) | + (0 < x ≤ 20) |
| O=C([C@@H]1CN1)N1CCN2c3ncnc4cc(-c5c(O)cccc5F)c(Cl)c(c34)OC[C@@H]2C1 [Example 121] | 0 | 0 |
| Cc1ccnc(C(C)C)c1-n1c(=O)nc(N2[C@@H](C)CN(C(=O)[C@H]3CN3)C[C@@H]2C)c2cc(F)c(-c3c(O)cccc3F)nc21 [Example 136] | + (0 < x ≤ 20) | + (0 < x ≤ 20) |
| CO[C@@H]1CCCC[C@@H]1N=C=NC1CCN(c2nc(OC[C@@H]3CCCN3C)nc3c2CCN(c2cccc4cccc(C)c24)C3)CC1 [Example 146] | + (0 < x ≤ 20) | + (0 < x ≤ 20) |
| Cc1ccc2[nH]ncc2c1N1CCc2c(nc(OC[C@@H]3CCCN3C)nc2N2CCN(C(=O)[C@H]3CN3)[C@@H](CC#N)C2)C1 [Example 110, 2-((S)-1-((R)-aziridine-2-carbonyl)-4-(7-(5-methyl-1H-indazol-4-yl)-2-(((S)-1-methylpyrrolidin-2-yl)methoxy)-5,6,7,8-tetrahydropyrido[3,4-d]pyrimidin-4-yl)piperazin-2-yl)acetonitrile] | + (0 < x ≤ 20) | + (0 < x ≤ 20) |
| CO[C@@H]1CCCC[C@H]1N=C=NC1CCN(c2nc(OC[C@@H]3CCCN3C)nc3c2CCN(c2cccc4cccc(C)c24)C3)CC1 [Example 147] | + (0 < x ≤ 20) | + (0 < x ≤ 20) |
